Laboratory results: patent USRE43038E1, “Compound having antitumor activity and process for producing the same” (Riken, priority 2002, dated 2011)
In brackets after ≈: the same amount, converted by molar mass.

System: SH-SY5Y cells of human neuroblastoma
Assay: MTT growth inhibition of SH-SY5Y human neuroblastoma cells
Format: cell-based
Settings: DMEM with 5% fetal bovine serum, 48 hours culture at 37° C., absorbance at 570 nm, read-out: 50% growth-inhibiting concentration
Experimental: SH-SY5Y cells of human neuroblastoma were cultured in DMEM medium (Dulbecco's modified Eagle medium) (containing 5% fetal bovine serum). Compound 1 of the present invention in a series of dilutions was added thereto and cultured at 37° C. under a 5% carbon dioxide atmosphere for 48 hours, followed by adding a MTT (3-(4,5-dimethyl-thiazol-2-yl)-2,5-diphenyl tetrazoliumbromide) reagent and further culturing for 2 to 4 hours. Absorbance at 570 nm was then measured to calculate the survival ratio.

IC50: 0.4 µg/mL (≈ 0.927 µM)
Structure (SMILES): CC=C(/C=C(C)/C=C/CC/C=C(\C)C(=O)C12OC1C(C)(O)NC2=O)C(=O)OC(C)(C)C (stereo not shown) [Compound 1, (3E,5E,9E)-tert-butyl-2-ethylidene-11-(4-hydroxy-4-methyl-2-oxo-6-oxa-3-aza-bicyclo[3.1.0]hex-1-yl)-4,10-dimethyl-11-oxounde ca-3,5,9-trienoate]
